Converted amounts (≈) assume the structure as drawn. Structures can show the parent of a compound that is named as a salt.

The text below walks through data of patent publication US6395745B1, “Alkaloid halide salts of swainsonine and methods of use” (priority 1997, dated 2002).

Data set [1] can be described thus: Accelerated stability of stressed solid samples, percentage remaining by HPLC. The format is physicochemical. Particulars: for percentage remaining, condition (e): 40° C. with 75% relative humidity for seven days; for percentage remaining, condition (d): 70° C. with low humidity for seven days; for percentage remaining, condition (c): 105° C. under nitrogen for seven days (*=average of two samples); for percentage remaining, condition (b): 105° C. with atmospheric oxygen for seven days (*=average of two samples); for percentage remaining, condition (a): UV light for 7 days. The source says: Samples of swainsonine free base synthesized using synthetic routes developed by Dr. David Dime (Toronto Research Chemicals, Toronto, Ontario) and Dr. William Pearson (University of Michigan, Ann Arbor, Mich.), were recrystallized to obtain either the hydrochloride salt, the hydrobromide salt or the free base of swainsonine. Samples were weighed and exposed to the conditions described below.
To model long-term stability or shelf life, various conditions were used to accelerate the decomposition process. Samples of crystalline prism swainsonine hydrochloride salt and swainsonine free base (a white, fluffy powder obtained from swainsonine hydrochloride were recrystallized from chloroform-methanol-diethyl ether) were weighed and exposed to conditions described below (stressed samples). Unstressed samples were prepared at 1 mg/ml concentration and chromatographed in sextuplicate on each run. After the indicated time interval each stressed sample was diluted with mobile phase at the same concentration as the unstressed sample. The percentage remaining swainsonine hydrochloride or swainsonine free base was calculated based on the percentage of either the hydrochloride or the free base in the unstressed sample.
The conditions included (a) UV light for 7 days; (b) 105° C. with atmospheric oxygen for seven days (*=average of two samples); (c) 105° C. under nitrogen for seven days (*=average of two samples); (d) 70° C. with low humidity for seven days; and (e) 40° C. with 75% relative humidity for seven days. Other tests include (f) UV for 24 hours; (g) 100° C. aqueous solution for two hours; (h) aqueous acidic treatment for 24 hours; (i) aqueous alkali treatment for 4 hours; and (j) (aqueous) 3% hydrogen peroxide for 4 hours. […] The physical properties of swainsonine hydrochloride compared to the free base and swainsonine hydrobromide, and swainsonine hydrofluoride are shown in Table 5.

The subject of the next data set is tumor cell invasion. The settings on record: in vitro; cited from earlier work.
For the next data set, the system named is murine tumor cells. The settings on record: organ-colonization and spontaneous metastasis assays; cited from earlier work.
For the next data set, the system named is LAK cell. The settings on record: cited from earlier work.
Another data set has as its system NK cell. Particulars: cited from earlier work.
Data set [2] concerns early erythroid progenitor cells (CFU-E). Nature of the data set: Murine bone marrow progenitor cell assay in methylcellulose, CFU-E. The format is cell-based, C57BL/6 mice. Here is the method: Pathogen-free C57BL/6 female mice, 8-9 weeks old, obtained from Jackson Laboratories were used. The room environment and photoperiod were controlled: 24° C.; humidity, 50±20%; 12 hr light and 12 hr dark. Mice were housed one per cage with ad libitum accesses to standard pelleted commercial laboratory diet and to sterile (autoclaved) tap water.
Swainsonine hydrochloride was manufactured by Seres Laboratories, Calif. FBS and methylcellulose (MethoCult M3330) were purchased from Stem Cell Technologies, Inc. (Vancouver. BC). Iscove's modified Dulbecco's medium was prepared using powdered media from Gibco BRL, deionized water and filter sterilization. For the handling of cells, the media was supplemented with 2% FBS and 50 μM β-mercaptoethanol (referred to as IMDM/FBS).
(§1) The healthy and GD0039 treated mice were euthanized by CO2 asphyxiation. Bone marrow (BM) cell suspensions were prepared under sterile conditions by flushing both femurs and tibiae with IMDM/FBS using a 26 gauge needle. Single cell suspensions were made up to 10.0 ml IMDM/FBS. The concentration of nucleated cells in each suspension was determined by triplicate counts on a hemocytometer. A portion of the cells was further diluted in media to the appropriate concentration before plating for the progenitor assay.
Colony-forming units (CFUs) were estimated by the methylcellulose method. One milliliter suspensions, containing 2×10^5 nucleated BM cells, in 0.1 ml of IMDM and 0.9 ml MethoCult (M3330), were plated in triplicate in 35 mm tissue culture dishes. […] The MethoCult M3330 contains 30% FBS and 10 μg/ml erythropoietin and is designed for the growth of early erythroid progenitor cells (CFU-E), which were scored after 3 days of incubation at 37° C. in a humidified atmosphere containing 5% CO2. […] Colonies containing more than 20 cells were scored using an inverted microscope with brightfield optics and 40× or 100× magnification.

The subject of a further data set is HT29m colon carcinoma. The settings on record: orally or by mini-osmotic pumps; cited from earlier work.
Data set [3] in a line: Solubility in distilled water at room temperature. The format is physicochemical. The settings on record: distilled water, water. Here is the method:
The melting point of the clear swainsonine hydrochloride crystal (prism) was 190-191° C. The solubility of swainsonine hydrochloride in distilled water at room temperature was about 3 g/ml, in contrast to the solubility of swainsonine free base, which is about 0.8 g/ml (see Table 5).

Data set [4] deals with splenic and bone marrow (BM) cell. Particulars: cited from earlier work.
Data set [5] relates to granulocyte-macrophage progenitor cells (CFU-GM). As to the kind of experiment: Murine bone marrow progenitor cell assay in methylcellulose, CFU-GM. The class given is cell-based, C57BL/6 mouse. The settings on record: FIG. 11. Here is the method: as §1
Colony-forming units (CFUs) were estimated by the methylcellulose method. One milliliter suspensions, containing 2×10^5 nucleated BM cells, in 0.1 ml of IMDM and 0.9 ml MethoCult (M3330), were plated in triplicate in 35 mm tissue culture dishes. Swainsonine hydrochloride or swainsonine were added to certain plates, in 0.1 ml of IMDM at concentrations of 30 μg/ml and 3 μg/ml, which gave final concentrations of […]. The MethoCult M3330 contains 30% FBS and 10 μg/ml erythropoietin and is designed for the growth of early erythroid progenitor cells (CFU-E), which were scored after 3 days of incubation at 37° C. in a humidified atmosphere containing 5% CO2. […] Colonies containing more than 20 cells were scored using an inverted microscope with brightfield optics and 40× or 100× magnification. […]

The conditions of data set [6]: mouse, in vivo; cited from earlier work.
For data set [7] the following is noted: mouse, in vivo; cited from earlier work. This is another data set of the same source.
The next data set has as its system human MeWo melanoma. Particulars: orally or by mini-osmotic pumps; cited from earlier work.

`O[C@H]1[C@H]2[C@H](O)CCCN2C[C@H]1O` [swainsonine hydrobromide, Swainsonine hydrobromide salt]: in data set [1] (hydrobromide salt), the “percentage remaining, condition (e)” value is listed as 91.4%; the “percentage remaining, condition (d)” value is reported as 95.5%; the “percentage remaining, condition (c)” value worked out at 92.1%; the “percentage remaining, condition (b)” value is 88.3%. In addition, the “percentage remaining, condition (a)” value in data set [1] (hydrobromide salt) is on record as 71.1%.

Consider `O[C@H]1[C@H]2[C@H](O)CCCN2C[C@H]1O` [swainsonine], for which, in the data set on tumor cell invasion, the “tumor cell invasion through extracellular matrix” value was “block tumor cell invasion”. For the same compound, the “metastatic potential of treated murine tumor cells” value in the data set with murine tumor cells is “less metastatic”. Also, the LAK cell activity entry with LAK cell was “increase”. The NK cell activity result in the data set on NK cell is “increase”. Also, the “increase in the number of early CFU-E” value in data set [2] (0.03 μg/ml to 10 μg/ml in vitro) is reported as about 3 fold. In data set [2] (added to methylcellulose in vitro), the “number of early CFU-E, counted on day 3” value is listed as “significantly increased”. The “mean CFU-E of triplicate counts ± SD from 2 × 10^5 nucleated BM cells” value in [2] (mouse 1 (control), 0.3 μg/ml in vitro, in vitro control 54 ± 12) is 108 ± 21; in data set [2] (mouse 1 (control), 3 μg/ml in vitro, in vitro control 54 ± 12) it was 101 ± 12; in data set [2] (mouse 2 (GD0039 treated in vivo, 20 μg/day for four days), 0.3 μg/ml in vitro), 71 ± 15; in data set [2] (mouse 2 (GD0039 treated in vivo, 20 μg/day for four days), 3 μg/ml in vitro), 103 ± 1. In addition, the “growth rate of tumor xenografts” value in the data set with HT29m colon carcinoma and in the data set with human MeWo melanoma was “inhibited the growth rate” throughout. Moreover, the solubility is 800 mg/mL (≈ 4620 mM) in data set [3] (Table 5) and about 800 mg/mL (≈ 4620 mM) in data set [3] (room temperature). Besides, the “splenic and bone marrow (BM) cell proliferation” value in data set [4] was “increase”. Further, in [5], the “effect on granulocyte-macrophage progenitor cells in vitro” value is given as “stimulate”. In addition, the “percentage remaining, condition (e)” value in data set [1] (listed as SW) was 102.5%. Moreover, in [1] (listed as SW), the “percentage remaining, condition (d)” value came out at 98.5%. Further, the “percentage remaining, condition (c)” value in data set [1] (listed as SW) came to 9.7%*. In addition, the “percentage remaining, condition (b)” value in data set [1] (listed as SW) amounted to 20.0%*. In addition, the “percentage remaining, condition (a)” value in data set [1] (listed as SW) worked out at 99.3%. Also, the “lethality of various chemotherapeutic agents” value in data set [6] was “protect against the lethality”. In data set [7], the “lethal doses of irradiation” value was “protect”.
